Experimental data published in patent US20070077308A1, “CONTINUOUS MULTI-MICROENCAPSULATION PROCESS FOR IMPROVING THE STABILITY AND STORAGE LIFE OF BIOLOGICALLY ACTIVE INGREDIENTS” (priority 2003, published 2007).

Assay: Storage stability of microencapsulated fish oil fatty acids
Type: physicochemical
From the text: We have performed tests of storage ability while remaining the active ingredients unchanged.

Row | Compound | % in the oil (d = 0) | % in the oil (d = 30, 4° C.) | % in the oil (d = 30, 25° C.) | % in the oil (d = 30, 45° C.) | % in the oil (d = 60, 45° C.)
1 | CCCCCCCC/C=C\CCCCCCCC(=O)O [oleic acid] | 2.9 % in the oil | 2.7 % in the oil | 2.6 % in the oil | 2.6 % in the oil | 2.4 % in the oil
2 | CC/C=C\C/C=C\C/C=C\CCCCCCCC(=O)O [alpha-linolenic acid] | 2.7 % in the oil | 2.5 % in the oil | 2.6 % in the oil | 2.5 % in the oil | 2.4 % in the oil
3 | CCCCC/C=C\C/C=C\CCCCCCCC(=O)O [linoleic acid] | 2.8 % in the oil | 2.6 % in the oil | 2.6 % in the oil | 2.5 % in the oil | 2.5 % in the oil

The next lines start with the values.

Row | % in the oil (d = 0) | % in the oil (d = 30, 4° C.) | % in the oil (d = 30, 25° C.) | % in the oil (d = 30, 45° C.) | % in the oil (d = 60, 45° C.) | Compound
4 | 1.4 % in the oil | 1.4 % in the oil | 1.4 % in the oil | 1.3 % in the oil | 1.3 % in the oil | CCCCCCCCCCCCCCCCCC(=O)O [Stearic acid]
5 | 1.1 % in the oil | 1.1 % in the oil | 1.1 % in the oil | 1.1 % in the oil | 1.1 % in the oil | CCCCCCCCCCCCCCCC(=O)O [Palmitic acid]
